In paper PMC7749613 (Journal of Cachexia, Sarcopenia and Muscle, 2020):
Bridge positions count the residues as written; N and C are the ends. Square brackets hold non-standard residues; d marks the D form. Peptide text beside a SMILES is read from it. d2Nal = N[C@H](Cc1ccc2ccccc2c1)C(=O)O; Nle = CCCC[C@H](N)C(=O)O

Tests used:
OATP1B3 = target: T1, OATP1B3 (Homo sapiens, UniProt Q9NPD5); test: Inhibition of prototypical substrate (CCK‐8) uptake by TCMCB07 in HEK293/OATP1B3 cells; format: in vitro ADME
T1 construct: host or cells: HEK293
T1 sequence (Q9NPD5 1-702): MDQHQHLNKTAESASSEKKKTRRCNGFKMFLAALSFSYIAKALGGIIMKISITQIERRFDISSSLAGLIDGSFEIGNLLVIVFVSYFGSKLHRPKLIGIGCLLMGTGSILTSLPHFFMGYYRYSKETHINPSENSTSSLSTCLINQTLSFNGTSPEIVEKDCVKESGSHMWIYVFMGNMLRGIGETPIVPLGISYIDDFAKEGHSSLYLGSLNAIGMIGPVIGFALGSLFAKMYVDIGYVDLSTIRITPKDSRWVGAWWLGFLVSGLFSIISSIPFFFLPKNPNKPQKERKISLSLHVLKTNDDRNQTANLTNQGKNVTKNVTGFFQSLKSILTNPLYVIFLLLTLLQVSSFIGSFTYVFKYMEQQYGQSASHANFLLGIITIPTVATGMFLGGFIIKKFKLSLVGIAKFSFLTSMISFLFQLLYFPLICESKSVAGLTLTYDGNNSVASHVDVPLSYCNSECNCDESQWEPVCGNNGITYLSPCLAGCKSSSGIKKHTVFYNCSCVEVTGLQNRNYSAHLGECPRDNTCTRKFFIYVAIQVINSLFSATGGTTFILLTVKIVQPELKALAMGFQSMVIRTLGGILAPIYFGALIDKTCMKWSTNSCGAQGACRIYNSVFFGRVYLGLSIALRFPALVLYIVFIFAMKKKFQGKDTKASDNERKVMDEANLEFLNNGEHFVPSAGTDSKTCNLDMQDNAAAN
Description: (§1) Cells were then washed three times × 1.0 mL each with pre‐warmed Hank's Balanced Salt Solution (HBSS) buffer. A 0.5 mL aliquot of uptake buffer [HBSS plus 10 mM 4‐(2‐hydroxyethyl)‐1‐piperazineethanesulfonic acid (HEPES), pH 7.4], containing the radiolabelled prototypical substrate and mannitol, was then incubated for various times up to 60 min to determine the optimal incubation time for subsequent experiments (i.e. time of sampling during linear uptake conditions). At the designated times, 1.0 mL of ice‐cold HBSS buffer was added to stop uptake after which the cells were rinsed three times with 1.0 mL with ice‐cold HBSS. Hyamine hydroxide (0.33 mL) was then added to each well to lyse the cells. The cells were transferred into a scintillation vial and mixed with 6.0 mL of cytosine scintillation cocktail. Radioactivity of the solubilized cells was determined with a dual‐channel liquid scintillation counter (Beckman LS 6000; Beckman Coulter Inc., Fullerton, CA) and the protein quantified by a bicinchoninic acid protein assay kit (Pierce Biotechnology; Rockford, IL).

OAT3 = target: T2, OAT3 (Homo sapiens, UniProt Q8TCC7); test: Inhibition of prototypical substrate (E3S) uptake by TCMCB07 in HEK293/OAT3 cells; format: in vitro ADME; conditions: substrate 1.0 μM [3H]E3S, 5.0 min, up to 1000 μM TCMCB07
T2 construct: host or cells: HEK293
T2 sequence (Q8TCC7 1-542): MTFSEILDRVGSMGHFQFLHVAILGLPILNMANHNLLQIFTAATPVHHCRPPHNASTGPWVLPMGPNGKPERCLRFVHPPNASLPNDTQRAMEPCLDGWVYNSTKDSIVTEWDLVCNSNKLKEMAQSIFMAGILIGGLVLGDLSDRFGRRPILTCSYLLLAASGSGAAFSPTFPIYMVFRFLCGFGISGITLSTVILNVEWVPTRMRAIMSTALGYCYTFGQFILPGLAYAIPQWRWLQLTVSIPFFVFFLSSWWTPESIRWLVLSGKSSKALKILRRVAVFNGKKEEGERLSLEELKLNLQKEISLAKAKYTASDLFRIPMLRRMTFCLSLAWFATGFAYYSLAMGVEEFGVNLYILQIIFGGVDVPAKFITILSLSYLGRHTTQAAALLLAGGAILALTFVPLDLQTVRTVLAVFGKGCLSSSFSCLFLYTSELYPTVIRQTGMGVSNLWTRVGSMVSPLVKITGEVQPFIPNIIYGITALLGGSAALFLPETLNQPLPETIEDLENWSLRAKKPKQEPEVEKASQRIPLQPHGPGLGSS
Description: as §1

human P‐gp (ABCB1, MDR1) = target: T3, human P‐gp (ABCB1, MDR1) (Homo sapiens, UniProt P08183); test: Transepithelial transport of digoxin (±TCMCB07) in MDCKII/MDR1 cells; format: in vitro ADME
T3 construct: host or cells: MDCKII
T3 sequence (P08183 whole entry): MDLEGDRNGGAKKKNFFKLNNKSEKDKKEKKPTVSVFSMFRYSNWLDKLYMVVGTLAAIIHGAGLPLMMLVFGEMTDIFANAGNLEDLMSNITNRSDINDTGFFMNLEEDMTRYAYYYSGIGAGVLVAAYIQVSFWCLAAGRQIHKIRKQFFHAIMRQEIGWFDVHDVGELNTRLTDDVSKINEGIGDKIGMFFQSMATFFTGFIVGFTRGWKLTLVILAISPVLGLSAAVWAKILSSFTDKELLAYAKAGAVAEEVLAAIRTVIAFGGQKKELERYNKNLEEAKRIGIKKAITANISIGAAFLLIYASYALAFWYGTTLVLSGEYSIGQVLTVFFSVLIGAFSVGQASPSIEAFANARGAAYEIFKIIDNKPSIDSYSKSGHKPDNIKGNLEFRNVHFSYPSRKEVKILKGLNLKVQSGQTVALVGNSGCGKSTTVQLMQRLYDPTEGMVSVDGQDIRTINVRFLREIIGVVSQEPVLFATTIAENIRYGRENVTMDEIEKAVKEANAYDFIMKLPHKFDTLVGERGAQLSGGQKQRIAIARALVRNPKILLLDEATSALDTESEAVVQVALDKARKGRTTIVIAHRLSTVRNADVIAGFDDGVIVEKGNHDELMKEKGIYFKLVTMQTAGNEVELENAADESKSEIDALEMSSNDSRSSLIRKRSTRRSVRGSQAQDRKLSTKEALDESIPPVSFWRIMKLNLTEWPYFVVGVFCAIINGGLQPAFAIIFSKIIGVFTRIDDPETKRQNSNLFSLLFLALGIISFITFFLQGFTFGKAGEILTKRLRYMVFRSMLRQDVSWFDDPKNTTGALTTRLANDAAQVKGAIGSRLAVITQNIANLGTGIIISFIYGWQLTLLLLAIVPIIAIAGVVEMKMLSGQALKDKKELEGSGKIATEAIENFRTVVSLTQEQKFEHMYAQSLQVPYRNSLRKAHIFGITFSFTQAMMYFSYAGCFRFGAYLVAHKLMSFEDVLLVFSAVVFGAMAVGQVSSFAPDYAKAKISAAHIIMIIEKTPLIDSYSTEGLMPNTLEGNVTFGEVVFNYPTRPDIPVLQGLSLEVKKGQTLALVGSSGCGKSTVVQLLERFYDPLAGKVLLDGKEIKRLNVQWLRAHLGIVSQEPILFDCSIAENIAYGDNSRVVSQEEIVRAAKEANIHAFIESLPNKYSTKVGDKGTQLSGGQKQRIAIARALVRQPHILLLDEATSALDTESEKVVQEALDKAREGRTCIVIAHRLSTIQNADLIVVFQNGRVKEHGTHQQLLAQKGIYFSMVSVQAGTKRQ
Description: Cells were then washed three times, each with 0.5 mL pre‐warmed HBSS buffer. […] The cells were then incubated for various times up to 60 min. […] At the designated times, 15 μL of apical buffer and 50 μL of basolateral buffer were sampled. Once all the samples were collected, 0.5 mL of ice‐cold HBSS buffer was added to the well to stop transport after which the cells were rinsed three times with 0.5 mL of ice‐cold HBSS. The filters with monolayers were then detached from the chamber and placed in a scintillation vial, and the cells were lysed with 0.33 mL hyamine hydroxide.
The permeability of digoxin and rosuvastatin (prototypical substrates for MDR1 and BCRP, respectively) was determined by the following ^18 : (4) Papp=CR·VR/CD^o·A·∆Δt, where Papp is the apparent permeability, CR is the concentration of substrate in the receiver chamber, CD^o is the concentration of substrate in the donor chamber at time zero, VR is the volume of buffer in the receiver chamber, A is the surface area of the insert filter membrane, and ∆t is the time over which permeability is measured.

OATP1A2 = target: T4, OATP1A2 (Homo sapiens, UniProt P46721); test: Cellular uptake in HEK293/OATP1A2‐transfected versus mock cells
T4 sequence (P46721 1-670): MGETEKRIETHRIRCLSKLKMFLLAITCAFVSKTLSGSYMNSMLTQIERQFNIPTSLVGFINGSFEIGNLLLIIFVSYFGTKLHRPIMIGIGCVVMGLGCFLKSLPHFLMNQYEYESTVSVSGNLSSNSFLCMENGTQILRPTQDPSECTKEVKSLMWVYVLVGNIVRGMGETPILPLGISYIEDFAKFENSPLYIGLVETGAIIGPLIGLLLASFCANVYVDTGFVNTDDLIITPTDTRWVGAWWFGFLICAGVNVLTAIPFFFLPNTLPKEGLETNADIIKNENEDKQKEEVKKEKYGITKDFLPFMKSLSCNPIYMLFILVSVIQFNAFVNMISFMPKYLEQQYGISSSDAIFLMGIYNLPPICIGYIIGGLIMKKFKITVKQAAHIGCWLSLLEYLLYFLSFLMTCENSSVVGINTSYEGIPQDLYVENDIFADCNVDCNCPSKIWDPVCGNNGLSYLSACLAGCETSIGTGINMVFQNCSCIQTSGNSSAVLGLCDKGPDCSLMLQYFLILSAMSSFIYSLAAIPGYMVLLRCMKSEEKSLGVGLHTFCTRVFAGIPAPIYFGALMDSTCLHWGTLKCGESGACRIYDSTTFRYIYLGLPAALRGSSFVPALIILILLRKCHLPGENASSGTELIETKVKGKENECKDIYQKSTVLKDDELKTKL
Description: Mock and transfected cells (250 000 cells/well) were seeded onto BioCoat poly‐D‐lysine 24 well plates (Corning Inc.) and cultured for 2 days as described previously for the other OATPs. […] Cells were incubated for various times over 10 min for the uptake studies. Radioactivity and protein measurements were then performed as described previously.
Cellular uptake and transepithelial transport were calculated as described previously by our laboratory. ^16 , ^17 , ^18 , ^19 [^3H]mannitol or [^14C]mannitol was used to correct the uptake of [^14C]substrate or [^3H]substrate, respectively, due to filter binding and extracellular content, as well as the transepithelial transport of substrate due to paracellular flux.
Uptake kinetics in mock cells was evaluated by a linear term: (3) v=Slope·C+Yint, where Slope is the non‐saturable rate constant and Yint is the y‐intercept of the line.

With `CCCC[C@H](NC(C)=O)C(=O)N[C@H]1CC(=O)NCCCC[C@@H](C(=O)N[C@@H](C(=O)N2CCC[C@@H]2C(N)=O)C(C)C)NC(=O)[C@H](Cc2c[nH]c3ccccc23)NC(=O)[C@H](CCCN=C(N)N)NC(=O)[C@@H](Cc2ccc3ccccc3c2)NC(=O)[C@@H]2CCCN2C1=O` [TCMCB07, Ac‐Nle‐c[Asp‐Pro‐dNal2′‐Arg‐Trp‐Lys]‐dVal‐dPro‐NH2] (Ac-[Nle]DP[d2Nal]RWK[dV][dP]-NH2; lactam 2-7) the IC50 (OATP1B3) was 307 ± 39 µM, the Slope factor (OATP1B3; slope factor n of Eqn 1, OATP1B3, substrate CCK‐8) was 1.8 ± 0.3 and the IC50 (OAT3) was “could not be determined”. The “decrease of MDR1‐mediated permeability of digoxin, A to B direction” value (human P‐gp (ABCB1, MDR1); in the presence of 500 μM TCMCB07, decreased by) was 27%, the “increase of MDR1‐mediated permeability of digoxin, B to A direction” value (human P‐gp (ABCB1, MDR1); in the presence of 500 μM TCMCB07, increased by) was 68% and the “effect on P‐gp (MDR1)‐mediated permeability of prototypical substrate” value (human P‐gp (ABCB1, MDR1); transfected cells, 500 μM TCMCB07) was “did not affect”. For the same compound, the “saturable uptake component (V max/K m) as share of total uptake (V max/K m + K d)” value (OATP1A2; OATP1A2‐transfected cells, at low concentrations (<< K m)) was “over 90%” and the “uptake of TCMCB07 in OATP1A2 cells as compared with mock cells” value (OATP1A2; at 5 min) was 3–4 times greater.
